What all share (type): in vivo
Common to all, as to set-up: scale not given here
Common to all, as to details: 21st day after application

Experiment [1] concerns China jute (Ab). As to the kind of experiment: Test Example 5: crop plant selectivity by upland field soil treatment (wheat), herbicidal effects. Put shortly:
(§1)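 Upland soil treatment test: crop and weed species sown in sand-filled pots and covered with soil before compound application. Visual scoring of weed control and wheat injury 21 days post-application, plants kept in a greenhouse, using a standard rating scale.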

Experiment [2] deals with common lambsquarters (Ch). The description is as above. Put shortly: as §1
The test system of experiment [3] is green foxtail (Se). The description is as above. Put shortly: as §1
The subject of experiment [4] is pale smartweed (Po). The experiment is described as above. A digest of the protocol:
as §1

The test system of a further experiment is slender amaranth (Am). Described as above. A digest of the protocol: as §1
Experiment [5] concerns China jute (Ab). As to the kind of experiment: Test Example 7: crop plant selectivity by upland field soil treatment (corn), herbicidal effects. A digest of the protocol:
(§2)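 Greenhouse pot test: scores for herbicidal effect and corn phytotoxicity were given 21 days after soil treatment, against set rating standards. Crop and weed species (foxtail, smartweed, amaranth, lambsquarters, China jute) were sown together in sand and covered with soil beforehand.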

Experiment [6] concerns green foxtail (Se). Described as above. Put shortly:
as §2

Experiment [7] relates to pale smartweed (Po). The description is as above. A digest of the protocol:
as §2

As for `C#CC(C)Oc1cc(Cl)cc(F)c1-c1ccc(C(F)(F)F)n(C)c1=O` (stereo not shown) [1′-5], the “Herbicidal effects Ab” value with China jute (Ab) [1] (dose 1.6 g ai/10a), in the experiment on China jute (Ab) [1] (dose 6.3 g ai/10a), in the experiment on China jute (Ab) [5] (dose 1.6 g ai/10a) and in the experiment with China jute (Ab) [5] (dose 6.3 g ai/10a) was 5 in each case. Also, the “Herbicidal effects Ch” value in experiment [2] (dose 1.6 g ai/10a) and in experiment [2] (dose 6.3 g ai/10a) was 5 throughout. Also, the “Herbicidal effects Se” value in the experiment on green foxtail (Se) [3] (dose 1.6 g ai/10a) was 4; with green foxtail (Se) [3] (dose 6.3 g ai/10a), 5; in the experiment on green foxtail (Se) [6] (dose 1.6 g ai/10a), 4; in the experiment with green foxtail (Se) [6] (dose 6.3 g ai/10a) it was 5. Also, the “Herbicidal effects Po” value in the experiment with pale smartweed (Po) [4] (dose 1.6 g ai/10a), in the experiment on pale smartweed (Po) [4] (dose 6.3 g ai/10a), in the experiment on pale smartweed (Po) [7] (dose 1.6 g ai/10a) and with pale smartweed (Po) [7] (dose 6.3 g ai/10a) was 5 each time. Also, the “Herbicidal effects Am” value with slender amaranth (Am) (dose 1.6 g ai/10a) and with slender amaranth (Am) (dose 6.3 g ai/10a) was 5 in each case.
For `C=CC(C)Oc1cc(-c2ccc(C(F)(F)F)n(C)c2=O)c(F)cc1Cl` (stereo not shown) [Compound 1-182], the “Herbicidal effects Ab” value in the experiment on China jute (Ab) [1] (dose 6.3 g ai/10a) and in the experiment on China jute (Ab) [5] (dose 6.3 g ai/10a) was 5 in each case. Moreover, the “Herbicidal effects Ch” value in experiment [2] (dose 6.3 g ai/10a) is 5. Besides, the “Herbicidal effects Se” value in the experiment with green foxtail (Se) [3] (dose 6.3 g ai/10a) and in the experiment with green foxtail (Se) [6] (dose 6.3 g ai/10a) was 5 throughout. Further, the “Herbicidal effects Po” value with pale smartweed (Po) [4] (dose 6.3 g ai/10a) and in the experiment with pale smartweed (Po) [7] (dose 6.3 g ai/10a) was 5 in each case. Further, in the experiment with slender amaranth (Am) (dose 6.3 g ai/10a), the “Herbicidal effects Am” value is listed as 5.
Turning to `CCOC(=O)CON=Cc1cc(-c2ccc(C(F)(F)F)n(C)c2=O)c(F)cc1Cl` [Compound 1-191], the “Herbicidal effects Ab” value in the experiment with China jute (Ab) [1] (dose 6.3 g ai/10a) and in the experiment with China jute (Ab) [5] (dose 6.3 g ai/10a) was 5 in each case. Moreover, the “Herbicidal effects Ch” value in experiment [2] (dose 6.3 g ai/10a) worked out at 5. Besides, the “Herbicidal effects Se” value in the experiment with green foxtail (Se) [3] (dose 6.3 g ai/10a) and with green foxtail (Se) [6] (dose 6.3 g ai/10a) was 5 in each case. Besides, the “Herbicidal effects Po” value with pale smartweed (Po) [4] (dose 6.3 g ai/10a) and in the experiment on pale smartweed (Po) [7] (dose 6.3 g ai/10a) was 5 each time. Besides, the “Herbicidal effects Am” value in the experiment with slender amaranth (Am) (dose 6.3 g ai/10a) is 5.
With `C=CC(O)c1cc(-c2ccc(C(F)(F)F)n(C)c2=O)c(F)cc1Cl` (stereo not shown) [Compound 1-197], the “Herbicidal effects Ab” value in the experiment with China jute (Ab) [1] (dose 6.3 g ai/10a) and with China jute (Ab) [5] (dose 6.3 g ai/10a) was 5 in each case. Moreover, the “Herbicidal effects Ch” value in experiment [2] (dose 6.3 g ai/10a) turned out to be 5. The “Herbicidal effects Se” value with green foxtail (Se) [3] (dose 6.3 g ai/10a) and with green foxtail (Se) [6] (dose 6.3 g ai/10a) was 5 each time. For the same compound, the “Herbicidal effects Po” value in the experiment with pale smartweed (Po) [4] (dose 6.3 g ai/10a) and in the experiment with pale smartweed (Po) [7] (dose 6.3 g ai/10a) was 5 each time. In addition, the “Herbicidal effects Am” value with slender amaranth (Am) (dose 6.3 g ai/10a) was 5.
Consider `C#CC(O)c1cc(-c2ccc(C(F)(F)F)n(C)c2=O)c(F)cc1Cl` (stereo not shown) [Compound 1-202], for which the “Herbicidal effects Ab” value in the experiment on China jute (Ab) [1] (dose 1.6 g ai/10a) and in the experiment on China jute (Ab) [5] (dose 1.6 g ai/10a) was 5 throughout. For the same compound, the “Herbicidal effects Ch” value in experiment [2] (dose 1.6 g ai/10a) came out at 5. Also, the “Herbicidal effects Se” value in the experiment with green foxtail (Se) [3] (dose 1.6 g ai/10a) and with green foxtail (Se) [6] (dose 1.6 g ai/10a) was 5 each time. The “Herbicidal effects Po” value in the experiment on pale smartweed (Po) [4] (dose 1.6 g ai/10a) and in the experiment with pale smartweed (Po) [7] (dose 1.6 g ai/10a) was 5 in each case. In the experiment on slender amaranth (Am) (dose 1.6 g ai/10a), the “Herbicidal effects Am” value came out at 5.
Regarding `C#CCN1C(=O)COc2cc(Cl)c(-c3ccc(C(F)(F)F)n(C)c3=O)cc21` [Compound 2-25], the “Herbicidal effects Ab” value in the experiment on China jute (Ab) [1] (dose 1.6 g ai/10a), with China jute (Ab) [1] (dose 6.3 g ai/10a) and in the experiment on China jute (Ab) [5] (dose 1.6 g ai/10a) was 5 in each case. Moreover, the “Herbicidal effects Ch” value in experiment [2] (dose 1.6 g ai/10a) and in experiment [2] (dose 6.3 g ai/10a) was 5 throughout. In addition, the “Herbicidal effects Se” value in the experiment on green foxtail (Se) [3] (dose 1.6 g ai/10a), in the experiment on green foxtail (Se) [3] (dose 6.3 g ai/10a) and in the experiment with green foxtail (Se) [6] (dose 1.6 g ai/10a) was 5 each time. Besides, the “Herbicidal effects Po” value in the experiment on pale smartweed (Po) [4] (dose 1.6 g ai/10a), in the experiment with pale smartweed (Po) [4] (dose 6.3 g ai/10a) and in the experiment with pale smartweed (Po) [7] (dose 1.6 g ai/10a) was 5 each time. Besides, the “Herbicidal effects Am” value in the experiment with slender amaranth (Am) (dose 1.6 g ai/10a) and in the experiment on slender amaranth (Am) (dose 6.3 g ai/10a) was 5 each time.
For `C=CCN1C(=O)COc2cc(Cl)c(-c3ccc(C(F)(F)F)n(C)c3=O)cc21` [Compound 2-26], the “Herbicidal effects Ab” value in the experiment on China jute (Ab) [1] (dose 6.3 g ai/10a) and in the experiment with China jute (Ab) [5] (dose 6.3 g ai/10a) was 5 throughout. The “Herbicidal effects Ch” value in experiment [2] (dose 6.3 g ai/10a) came to 5. In addition, the “Herbicidal effects Se” value in the experiment on green foxtail (Se) [3] (dose 6.3 g ai/10a) and in the experiment on green foxtail (Se) [6] (dose 6.3 g ai/10a) was 5 in each case. Besides, the “Herbicidal effects Po” value in the experiment on pale smartweed (Po) [4] (dose 6.3 g ai/10a) and in the experiment with pale smartweed (Po) [7] (dose 6.3 g ai/10a) was 5 each time. Further, in the experiment on slender amaranth (Am) (dose 6.3 g ai/10a), the “Herbicidal effects Am” value came to 5.
`Cc1cc2c(-c3ccc(C(F)(F)F)n(C)c3=O)c(F)cc(Cl)c2o1` [Compound 4-1]: the “Herbicidal effects Ab” value in the experiment on China jute (Ab) [1] (dose 1.6 g ai/10a), in the experiment with China jute (Ab) [1] (dose 6.3 g ai/10a), in the experiment with China jute (Ab) [5] (dose 1.6 g ai/10a) and with China jute (Ab) [5] (dose 6.3 g ai/10a) was 5 in each case. For the same compound, the “Herbicidal effects Ch” value in experiment [2] (dose 1.6 g ai/10a) and in experiment [2] (dose 6.3 g ai/10a) was 5 throughout. Moreover, the “Herbicidal effects Se” value in the experiment with green foxtail (Se) [3] (dose 1.6 g ai/10a), in the experiment with green foxtail (Se) [3] (dose 6.3 g ai/10a), in the experiment with green foxtail (Se) [6] (dose 1.6 g ai/10a) and in the experiment on green foxtail (Se) [6] (dose 6.3 g ai/10a) was 5 in each case. The “Herbicidal effects Po” value with pale smartweed (Po) [4] (dose 1.6 g ai/10a), in the experiment on pale smartweed (Po) [4] (dose 6.3 g ai/10a), with pale smartweed (Po) [7] (dose 1.6 g ai/10a) and in the experiment on pale smartweed (Po) [7] (dose 6.3 g ai/10a) was 5 each time. Further, the “Herbicidal effects Am” value with slender amaranth (Am) (dose 1.6 g ai/10a) and with slender amaranth (Am) (dose 6.3 g ai/10a) was 5 throughout.

The record behind these values is US6472348B1, “Pyridone derivatives and herbicides” (Kumiai Chemical Industry Co., Ltd., priority 1996, dated 2002).
